Experimental findings from ChEMBL document CHEMBL3045726, “Fungicidal Activity of Pyrazolylpyrimidines” (1990) are described below.

Common to all, as to format: functional
The subject of assay [1] is Podosphaera fuliginea. In words: Fungicidal activity against Podosphaera fuliginea in cucumber assessed as control of cucumber powdery mildew at 62.5 ppm measured after 7 days of inoculation.
Assay [2] deals with Podosphaera fuliginea. In words: Fungicidal activity against Podosphaera fuliginea in cucumber assessed as control of cucumber powdery mildew at 125 ppm measured after 10 days of inoculation.
For assay [3], the system named is Podosphaera fuliginea. In words: Fungicidal activity against Podosphaera fuliginea in cucumber assessed as control of cucumber powdery mildew at 62.5 ppm measured after 10 days of inoculation.
The subject of assay [4] is Podosphaera fuliginea. In words: Fungicidal activity against Podosphaera fuliginea in cucumber assessed as control of cucumber powdery mildew at 125 ppm measured after 7 days of inoculation.
The subject of assay [5] is Pyricularia oryzae. In words: Fungicidal activity against Magnaporthe oryzae in rice seedlings assessed as control of rice blast at 250 ppm by curative foliar treatment.
The subject of assay [6] is Pyricularia oryzae. In words: Fungicidal activity against Magnaporthe oryzae by agar dilution method.
For assay [7], the system named is Pyricularia oryzae. In words: Fungicidal activity against Magnaporthe oryzae in rice seedlings assessed as control of rice blast at 500 ppm by preventive foliar treatment.
For assay [8], the system named is Nakataea oryzae. In words: Fungicidal activity against Magnaporthe salvinii by agar dilution method.
For assay [9], the system named is Pyricularia oryzae. Nature of the assay: Fungicidal activity against Magnaporthe oryzae in rice seedlings assessed as control of rice blast at 500 ppm by curative foliar treatment.

Converted amounts (≈) assume the structure as drawn.

`CCCCc1c(C)nc(N(C)C)nc1O` [DIMETHIRIMOL]: the Activity in assay [1], in [2], in [3] and in assay [4] was 100% each time.
In the case of `Cc1cc(O)nc(-n2nc(C)cc2C)n1`, the Activity in [5] is 69%. This compound also showed an MIC in [6] of 12.5 µg/mL (≈ 61.2 µM).
Regarding `Cc1cc(C)n(-c2nc(O)c3c(n2)CCC3)n1`, the Activity in [7] is 13%; in [5], 15%. In addition, the MIC in [8] and in assay [6] was 6.25 µg/mL (≈ 27.1 µM) in each case.
In the case of `Cc1cc(C)n(-c2nc(C)c(C)c(O)n2)n1`, in assay [5], the Activity is recorded as 0%. Besides, the MIC turned out to be 100 µg/mL (≈ 458 µM) in [8] and 12.5 µg/mL (≈ 57.3 µM) in assay [6].
Take `CCCCc1c(C)nc(-n2nc(C)cc2C)nc1O`: the Activity in [7] is on record as 48%; in assay [1], 100%; in [2], 100%; in [3], 100%; in assay [4], 100%; in [9] it was 99%. Also, the MIC was determined as 0.1 µg/mL (≈ 0.384 µM) in assay [8] and 6.25 µg/mL (≈ 24 µM) in assay [6].
Consider `CCCCc1c(C)nc(NCC)[nH]c1=O` [ETHIRIMOL], for which the Activity in assay [1], in [2], in [3] and in assay [4] was 100% each time.
As to `CCCCCCc1c(C)nc(-n2nc(C)cc2C)nc1O`, the Activity in assay [7] was found to be 81%; in assay [1] it was 99.4%; in [2], 100%; in assay [3], 98.4%; in assay [4], 100%; in assay [9] it was 89%. Further, the MIC in assay [8] and in [6] was 6.25 µg/mL (≈ 21.7 µM) in each case.
As to `Cc1cc(C)n(-c2nc(C)c(CC(C)C)c(O)n2)n1`, the Activity was determined as 93% in assay [7]; 100% in [1]; 100% in [2]; 99.4% in assay [3]; 100% in assay [4]; 98% in [9]. The MIC is 0.78 µg/mL (≈ 3 µM) in [8] and 6.25 µg/mL (≈ 24 µM) in assay [6].
Regarding `Cc1cc(C)n(-c2nc(O)c3c(n2)CCCC3)n1`, the Activity in assay [7] and in assay [5] was 0% throughout. This compound also displayed an MIC in assay [6] of 3.12 µg/mL (≈ 12.8 µM).
As for `Cc1cc(C)nc(-n2nc(C(F)(F)F)cc2C(F)(F)F)n1`, the Activity is 51% in assay [7] and 31% in assay [9]. Moreover, the MIC in assay [8] and in [6] was over 100 µg/mL each time.
Take `CCc1cc(C)n(-c2nc(C)cc(C)n2)n1`: the Activity in assay [7] was 31%; in assay [9] it was 100%. For the same compound, the minimum inhibitory concentration (MIC) in assay [8] and in [6] was 50 µg/mL (≈ 231 µM) throughout.
For `CCCCCc1c(C)nc(-n2nc(C)cc2C)nc1O`, the Activity in [7] turned out to be 81%; in assay [1], 100%; in assay [2] it was 100%; in assay [3] it was 100%; in assay [4] it was 100%; in assay [9] it was 94%. In addition, the MIC worked out at 0.2 µg/mL (≈ 0.729 µM) in assay [8] and 6.25 µg/mL (≈ 22.8 µM) in assay [6].
As for `CCc1cc(CC)n(-c2nccc(C)n2)n1`, the Activity is 59% in assay [7] and 100% in assay [9]. Besides, the MIC in assay [8] and in [6] was 25 µg/mL (≈ 116 µM) in each case.
As to `Cc1cc(C)nc(-n2[nH]c(C)cc2=O)n1`, the results for the Activity in [7] and in [9] were 31% and 0%, respectively. Besides, the MIC in [8] and in assay [6] was over 100 µg/mL each time.
Turning to `C=CCc1c(C)nn(-c2nc(C)cc(C)n2)c1C`, the Activity amounted to 85% in assay [7] and 99% in assay [9]. The MIC in assay [8] is 25 µg/mL (≈ 103 µM); in assay [6], 100 µg/mL (≈ 413 µM).
In the case of `Cc1cc(C)nc(-n2ccnc2)n1`, the Activity in assay [7] came to 51%; in [9] it was 0%. The minimal inhibitory concentration (MIC) in assay [8] and in assay [6] was over 100 µg/mL in each case.
As for `Cc1cc(C)n(-c2ccc(Cl)nn2)n1`, the Activity in assay [7] and in assay [9] was 31% throughout. In addition, the minimum inhibitory concentration (MIC) in [8] and in assay [6] was over 100 µg/mL throughout.
With `Cc1cc(C)nc(-n2cncn2)n1`, the results for the Activity in assay [7] and in assay [9] were 31% and 0%, respectively. The MIC in assay [8] and in assay [6] was over 100 µg/mL in each case.
Turning to `Cc1cc(C)nc(-n2nc3c(c2C)CCCC3)n1`, the Activity in [7] came to 84%; in assay [9], 99%. In addition, the MIC in assay [8] and in assay [6] was 12.5 µg/mL (≈ 51.6 µM) each time.
For the compound `CCOC(=O)c1cc(C)nn1-c1nc(C)cc(C)n1`, the Activity in [7] and in assay [9] was 0% each time. The MIC in [8] and in assay [6] was over 100 µg/mL throughout.
